In patent US9765087B2, “Benzimidazole derivatives” (ENANTA PHARMACEUTICALS, INC., priority 2009, dated 2017):

System: HCV 1a genotype replicon
Test: HCV replicon assay (qRT-PCR or luciferase), genotype 1a
Type: cell-based
Details: Hepatitis C virus, Table 12, numeric values, read-out: 1a EC50
Procedure: HCV replicon cell lines (kindly provided by R. Bartenschlager) isolated from colonies as described by Lohman et. al. (Lohman et al. (1999) Science 285: 110-113, expressly incorporated by reference in its entirety) and used for all experiments. The HCV replicon has the nucleic acid sequence set forth in EMBL Accession No.: AJ242651, the coding sequence of which is from nucleotides 1801 to 8406.
These cell lines were maintained at 37° C., 5% CO2, 100% relative humidity in DMEM (Cat#11965-084, Invitrogen), with 10% fetal calf serum (“FCS”, Invitrogen), 1% non-essential amino acids (Invitrogen), 1% of Glutamax (Invitrogen), 1% of 100× penicillin/streptomycin (Cat#15140-122, Invitrogen) and Geneticin (Cat#10131-027, Invitrogen) at 0.75 mg/ml or 0.5 mg/ml for 11-7 and Huh-luc/neo-ET cells, respectively.
EC50 values of single agent compounds and combinations were determined by HCV RNA detection using quantitative RT-PCR, according to the manufacturer's instructions, with a TAQMAN® One-Step RT-PCR Master Mix Reagents Kit (Cat#AB 4309169, Applied Biosystems) on an ABI Model 7500 thermocycler. The TaqMan primers used for detecting and quantifying HCV RNA were obtained from Integrated DNA Technologies. HCV RNA was normalized to GAPDH RNA levels in drug-treated cells, which is detected and quantified using the Human GAPDH Endogenous Control Mix (Applied Biosystems, AB 4310884E). Total cellular RNA is purified from 96-well plates using the RNAqueous 96 kit (Ambion, Cat# AM1812). Chemical agent cytotoxicity is evaluated using an MTS assay according to the manufacturer's directions (Promega).
Since clinical drug resistance often develops in viral infections following single agent therapies, there is a need to assess the additive, antagonistic, or synergistic properties of combination therapies. We used the HCV replicon system to assess the potential use of the compound of the present invention or in combination therapies with Interferon alpha, cyclosporine analogs and inhibitors targeting other HCV proteins. The acute effects of a single or combinations of drugs are studied in the “Huh-luc/neo-ET” replicon with each chemical agent titrated in an X or Y direction in a 6 point two-fold dilution curve centered around the EC50 of each drug. Briefly, replicon cells are seeded at 7,000 cells per well in 90 ul DMEM (without phenol red, Invitrogen Cat.#31053-036) per well with 10% FCS, 1% non-essential amino acids, 1% of Glutamax and 1% of 100× penicillin/streptomycin and incubated overnight at 37° C., 5% CO2, 100% relative humidity. 16-20 h after seeding cells, test compounds previously solubilized and titrated in dimethyl sulfoxide (“DMSO”) from each X plate and Y plate are diluted 1:100 in DMEM (without phenol red, Invitrogen Cat.#31053-036) with 10% FCS, 1% non-essential amino acids, 1% of Glutamax and 1% of 100× penicillin/streptomycin and added directly to the 96-well plate containing cells and growth medium at a 1:10 dilution for a final dilution of compound and DMSO of 1:1000 ([…] final concentration). Drug treated cells are incubated at 37° C., 5% CO2, 100% relative humidity for 72 hours before performing a luciferase assay using 100 ul per well BriteLite Plus (Perkin Elmer) according to the manufacturer's instructions. Data analysis utilizes the method published by Prichard and Shipman (Antiviral Research, 1990. 14:181-205). Using this method, the combination data are analyzed for antagonistic, additive, or synergistic combination effects across the entire combination surface created by the diluted compounds in combination.
The compounds of the present invention can be effective against the HCV 1b genotype. It should also be understood that the compounds of the present invention can inhibit multiple genotypes of HCV. In one embodiment compound of the present invention are active against the 1a, 1b, 2a, 2b, 3a, 4a, and 5a genotypes. […] EC50 ranges against HCV 1b and 1a are as follows: A>10 nM; B1-10 nM; C<1 nM.

Q: For `CC[C@H](NC(=O)OC)C(=O)N1CC2(CC2)C[C@H]1c1ncc(-c2ccc(C#Cc3ccc4nc([C@@H]5CC6(CC6)CN5C(=O)[C@H](CC)NC(=O)OC)[nH]c4c3)cc2)[nH]1` [Example 655], which EC50 is on record?
A: 0.034 nM

Q: How did the EC50 turn out when `COC(=O)N[C@H](C(=O)N1CC2(CC2)C[C@H]1c1ncc(-c2ccc(C#Cc3ccc4nc([C@@H]5CC6(CC6)CN5C(=O)[C@@H](NC(=O)OC)C5CCOCC5)[nH]c4c3)cc2)[nH]1)C(C)C` [Example 590] was run?
A: 0.017 nM

Q: `COC(=O)N[C@H](C(=O)N1CC2(CC2)C[C@H]1c1nc(-c2ccc(C#Cc3ccc4[nH]c([C@@H]5CC6(CC6)CN5C(=O)[C@@H](NC(=O)OC)C(C)C)nc4c3)cc2)c(-c2ccccc2)[nH]1)C(C)C` [Example 661] was tested. Which EC50 did it give?
A: 0.369 nM

Q: For `COC(=O)N[C@H](C(=O)N1CC2(CC2)C[C@H]1c1nc2ccc(C#Cc3ccc(-c4cnc([C@@H]5CCCN5C(=O)[C@H](NC(=O)OC)c5ccoc5)[nH]4)cc3)cc2[nH]1)C(C)C` [Example 681], which EC50 is on record?
A: 0.202 nM

Q: With `COC(=O)N[C@@H](CC(N)=O)C(=O)N1CCC[C@H]1c1ncc(-c2ccc(C#Cc3ccc4nc([C@@H]5CC6(CC6)CN5C(=O)[C@@H](NC(=O)OC)C(C)C)[nH]c4c3)cc2)[nH]1` [Example 619] as the compound, how does the EC50 read?
A: 0.699 nM

Same assay, conditions: Hepatitis C virus, Table 12, range class, read-out: 1a EC50 Range

Q: `COC(=O)N[C@H](C(=O)N1CC2(CC2)C[C@H]1c1nc2ccc(C#Cc3ccc(-c4cnc([C@@H]5CCCN5C(=O)[C@H](NC(=O)OC)[C@H](C)c5ccccc5)[nH]4)cc3)cc2[nH]1)C(C)C` [Example 604] was tested. Which EC50 did it give?
A: > 10 nM

Q: Which EC50 does the source give for `COC(=O)N[C@H](C(=O)N1CC2(CC2)C[C@H]1c1nc2ccc(C#Cc3ccc(-c4cnc([C@@H]5CCCN5C(=O)[C@H](NC(=O)OC)c5cccc(Cl)c5)[nH]4)cc3)cc2[nH]1)C(C)C` [Example 665] here?
A: < 1 nM

Q: `COC(=O)N[C@@H](CCNC(N)=O)C(=O)N1CCC[C@H]1c1nc(-c2ccc(C#Cc3ccc4[nH]c([C@@H]5CC6(CC6)CN5C(=O)[C@@H](NC(=O)OC)C(C)C)nc4c3)cc2)c[nH]1` [Example 553] was tested. Which EC50 did it give?
A: 1 to 10 nM

Q: `COC(=O)N[C@H](C(=O)N1CC2(CC2)C[C@H]1c1nc2ccc(C#Cc3ccc(-c4cnc([C@@H]5CCCN5C(=O)[C@H](NC(=O)OC)c5cc(F)cc(F)c5)[nH]4)cc3)cc2[nH]1)C(C)C` (stereo in doubt) [Example 678] was tested. Which EC50 did it give?
A: < 1 nM

Q: How did the EC50 turn out when `COC(=O)N[C@H](C(=O)N1CC2(CC2)C[C@H]1c1ncc(-c2ccc(C#Cc3ccc4nc([C@@H]5C[C@H]6C[C@H]6N5C(=O)[C@H](NC(=O)OC)c5ccccc5)[nH]c4c3)cc2)[nH]1)C(C)C` [Example 586] was run?
A: < 1 nM

Q: How did the EC50 turn out when `COC(=O)N[C@H](C(=O)N1CC2(CC2)C[C@H]1c1ncc(-c2ccc(C#Cc3ccc4nc([C@@H]5CC6(CC6)CN5C(=O)[C@H](NC(=O)OC)C5CCCC5)[nH]c4c3)cc2)[nH]1)C(C)C` [Example 599] was run?
A: 1 to 10 nM

Q: How did the EC50 turn out when `COC(=O)N[C@H](C(=O)N1CC2(CC2)C[C@H]1c1nc2ccc(C#Cc3ccc(-c4cnc([C@@H]5CCCN5C(=O)[C@@H](NC(=O)OC)[C@@H](C)c5ccccc5)[nH]4)cc3)cc2[nH]1)C(C)C` (stereo in doubt) [Example 672] was run?
A: < 1 nM

Q: `COC(=O)N[C@H](C(=O)N1CC2(CC2)C[C@H]1c1nc(-c2ccc(C#Cc3ccc4[nH]c([C@@H]5CC6(CC6)CN5C(=O)[C@@H](NC(=O)OC)C(C)C)nc4c3)cc2)c(-c2ccncc2)[nH]1)C(C)C` [Example 593] was tested. Which EC50 did it give?
A: < 1 nM

Q: Which EC50 does the source give for `COC(=O)N[C@H](C(=O)N1CC2(CC2)C[C@H]1c1nc2ccc(C#Cc3ccc(-c4cnc([C@@H]5C[C@@H](C)CN5C(=O)[C@@H](NC(=O)OC)C5CCOCC5)[nH]4)cc3)cc2[nH]1)C(C)C` [Example 603] here?
A: < 1 nM

Q: For `COCC(COC)[C@H](NC(=O)OC)C(=O)N1CC2(CC2)C[C@H]1c1nc2ccc(C#Cc3ccc(-c4cnc([C@@H]5CC6(CC6)CN5C(=O)[C@@H](NC(=O)OC)C(C)C)[nH]4)cc3)cc2[nH]1` [Example 670], which EC50 is on record?
A: < 1 nM

Q: Which EC50 does the source give for `CC[C@H](C)[C@H](NC(=O)OC)C(=O)N1CCC[C@H]1c1ncc(-c2ccc(C#Cc3ccc4nc([C@@H]5CC6(CC6)CN5C(=O)[C@@H](NC(=O)OC)C(C)C)[nH]c4c3)cc2)[nH]1` [Example 673] here?
A: < 1 nM

Q: For `COC(=O)N[C@H](C(=O)N1CC2(CC2)C[C@H]1c1ncc(-c2ccc(C#Cc3ccc4nc([C@@H]5CC6(CC6)CN5C(=O)[C@H](NC(=O)OC)c5cccs5)[nH]c4c3)cc2)[nH]1)C(C)C` [Example 582], which EC50 is on record?
A: < 1 nM

Q: `CC[C@H](C)[C@H](NC(=O)OC)C(=O)N1CC2(CC2)C[C@H]1c1ncc(-c2ccc(C#Cc3ccc4nc([C@@H]5CC6(CC6)CN5C(=O)[C@@H](NC(=O)OC)C(C)C)[nH]c4c3)cc2)[nH]1` [Example 674] was tested. Which EC50 did it give?
A: < 1 nM

Q: Which EC50 does the source give for `COC(=O)N[C@H](C(=O)N1CC2(CC2)C[C@H]1c1nc2ccc(C#Cc3ccc(-c4cnc([C@@H]5C[C@H]6C[C@H]6N5C(=O)[C@H](NC(=O)OC)c5ccccc5)[nH]4)cc3)cc2[nH]1)C(C)C` [Example 659] here?
A: < 1 nM

Q: `COC(=O)N[C@H](C(=O)N1CC2(CC2)C[C@H]1c1ncc(-c2ccc(C#Cc3ccc4nc([C@@H]5CC6(CC6)CN5C(=O)[C@@H](NC(=O)OC)c5ccccc5)[nH]c4c3)cc2)[nH]1)c1ccccc1` [Example 609] was tested. Which EC50 did it give?
A: 1 to 10 nM

Q: With `COC(=O)N[C@H](C(=O)N1CC2(CC2)C[C@H]1c1nc2ccc(C#Cc3ccc(-c4cnc([C@@H]5C[C@@H](C)CN5C(=O)[C@H](NC(=O)OC)c5ccccc5)[nH]4)cc3)cc2[nH]1)C(C)C` [Example 671] as the compound, how does the EC50 read?
A: < 1 nM

Q: With `COC(=O)N[C@H](C(=O)N1CC2(CC2)C[C@H]1c1ncc(-c2ccc(C#Cc3ccc4nc([C@@H]5CC6(CC6)CN5C(=O)[C@H](NC(=O)OC)c5cccc(F)c5)[nH]c4c3)cc2)[nH]1)C(C)C` [Example 653] as the compound, how does the EC50 read?
A: < 1 nM

Q: `COC(=O)N[C@H](C(=O)N1CC2(CC2)C[C@H]1c1ncc(-c2ccc(C#Cc3ccc4nc([C@@H]5CC6(CC6)CN5C(=O)[C@@H](NC(=O)OC)C5CCCC5)[nH]c4c3)cc2)[nH]1)C(C)C` [Example 679] was tested. Which EC50 did it give?
A: < 1 nM

Q: `COC(=O)N[C@H](C(=O)N1CC2(CC2)C[C@H]1c1nc2ccc(C#Cc3ccc(-c4cnc([C@@H]5CCCN5C(=O)[C@H](NC(=O)OC)c5ccccc5F)[nH]4)cc3)cc2[nH]1)C(C)C` [Example 594] was tested. Which EC50 did it give?
A: < 1 nM

Q: With `CC[C@@H](C)[C@H](NC(=O)OC)C(=O)N1CC2(CC2)C[C@H]1c1ncc(-c2ccc(C#Cc3ccc4nc([C@@H]5CC6(CC6)CN5C(=O)[C@@H](NC(=O)OC)C(C)C)[nH]c4c3)cc2)[nH]1` [Example 606] as the compound, how does the EC50 read?
A: < 1 nM

Q: `COC(=O)N[C@H](C(=O)N1CC2(CC2)C[C@H]1c1nc(-c2ccc(C#Cc3ccc4[nH]c([C@@H]5CC6(CC6)CN5C(=O)[C@@H](NC(=O)OC)C(C)C)nc4c3)cc2)c(F)[nH]1)C(C)C` [Example 660] was tested. Which EC50 did it give?
A: < 1 nM

Q: For `CC(C)[C@H](NC(=O)OC1CCC1)C(=O)N1CC2(CC2)C[C@H]1c1ncc(-c2ccc(C#Cc3ccc4nc([C@@H]5CC6(CC6)CN5C(=O)[C@@H](NC(=O)OC5CCC5)C(C)C)[nH]c4c3)cc2)[nH]1` [Example 576], which EC50 is on record?
A: > 10 nM

Q: Which EC50 does the source give for `COC(=O)N[C@H](C(=O)N1CC2(CC2)C[C@H]1c1ncc(-c2ccc(C#Cc3ccc4nc([C@@H]5CC6(CC6)CN5C(=O)[C@@H](N)C(C)C)[nH]c4c3)cc2)[nH]1)C(C)C` [Example 556] here?
A: > 10 nM

Q: With `COC(=O)N[C@H](C(=O)N1CC2(CC2)C[C@H]1c1ncc(-c2ccc(C#Cc3ccc4nc([C@@H]5CC6(CC6)CN5C(=O)[C@H](NC(=O)OC)c5ccsc5)[nH]c4c3)cc2)[nH]1)C(C)C` [Example 581] as the compound, how does the EC50 read?
A: < 1 nM

Q: With `CC[C@H](C)[C@H](NC(=O)OC)C(=O)N1CC2(CC2)C[C@H]1c1nc2ccc(C#Cc3ccc(-c4cnc([C@@H]5CC6(CC6)CN5C(=O)[C@@H](NC(=O)OC)C(C)C)[nH]4)cc3)cc2[nH]1` [Example 587] as the compound, how does the EC50 read?
A: < 1 nM
